Assay results: patent publication US20050004216A1, “Treating asthma, chronic obstructive pulmonary disease and/or other respiratory difficulties” (priority 2001, published 2005)

Tests used:
[1] = laboratory experiments; reference to website www.gcinutrients.com; cited from earlier work
[2] = system: asthma, chronic obstructive pulmonary disease and/or other respiratory difficulties; assay: Trial examples: oral capsules in patients with asthma and/or chronic obstructive pulmonary disease; type: in vivo, human; details: trials with a variety of patients; dosage forms of cetyl myristate alone
From the text: Examples of use follows. […] That mixture comprises by weight 95% cetyl myristate and 5% cetyl palmitate by weight manufactured by the process as disclosed in NZ Patent Specification No. 332959. In addition added excipients were present in the admixture and then encapsulated in the non gelatin two part capsule case.

In the case of CCCCCCCCCCCCCCCCOC(=O)CCCCCCCCCCCCC [cetyl myristate], the anti-arthritic activity [1] is listed as “negligible” and the “relief from the symptoms of asthma, chronic obstructive pulmonary disease and/or other respiratory difficulties” value [2] is listed as “favourable responses”.
